Read-outs that look alike come from different tables or passages of the source. Marks after values point to notes of the source that are not given here.
Key:
SW-620 = conditions: SW-620, Colon, NCI database, cited from earlier work; for CC50: read-out: LC50 (the source's name)
NCI-H460 [1] = conditions: NCI-H460, Non-Small Cell Lung, NCI database, cited from earlier work; for CC50: read-out: LC50 (the source's name)
HOP-62 = conditions: HOP-62, Non-Small Cell Lung, NCI database, cited from earlier work; for CC50: read-out: LC50 (the source's name)
OVCAR-4 = conditions: OVCAR-4, Ovarian, NCI database, cited from earlier work; for CC50: read-out: LC50 (the source's name)
SNB-75 = conditions: SNB-75, CNS, NCI database, cited from earlier work; for CC50: read-out: LC50 (the source's name)
LOX IMVI = conditions: Melanoma, NCI database, cited from earlier work; for CC50: read-out: LC50 (the source's name)
KM12 [2] = conditions: KM12, Colon, NCI database, cited from earlier work; for CC50: read-out: LC50 (the source's name)
HT29 = conditions: HT29, Colon, NCI database, cited from earlier work; for CC50: read-out: LC50 (the source's name)
SF-539 = conditions: SF-539, CNS, NCI database, cited from earlier work; for CC50: read-out: LC50 (the source's name)
SK-MEL-5 [3] = conditions: SK-MEL-5, Melanoma, NCI database, cited from earlier work; for CC50: read-out: LC50 (the source's name)
OVCAR-3 [4] = conditions: OVCAR-3, Ovarian, NCI database, cited from earlier work; for CC50: read-out: LC50 (the source's name)
RPMI-8226 = conditions: RPMI-8226, Leukemia, NCI database, cited from earlier work; for CC50: read-out: LC50 (the source's name)
MOLT-4 = conditions: MOLT-4, Leukemia, NCI database, cited from earlier work; for CC50: read-out: LC50 (the source's name)
HCT-15 = conditions: HCT-15, Colon, NCI database, cited from earlier work; for CC50: read-out: LC50 (the source's name)
SK-MEL-5 [5] = conditions: for CC50: read-out: LC50
U251 = conditions: for CC50: read-out: LC50
NCI-H23 = type: cell-based; conditions: NCI-H23, Non-Small Cell Lung, 48 h
NCI-H460 [6] = conditions: for CC50: read-out: LC50
OVCAR-3 [7] = conditions: for CC50: read-out: LC50
K-562 = conditions: for CC50: read-out: LC50
KM12 [8] = conditions: for CC50: read-out: LC50
[9] = system: Heterozygous nude CD-1 male mice; assay: Liver function (AST, ALT in plasma) and liver histopathology in treated mice
Method: Heterozygous nude CD-1 male mice were treated (i.p.) with multiple doses consisting of either one dose daily for three consecutive days (cis-AVTP or trans-AVTG, 21.25 μmol/kg, 6-TG, 8.5 or 21.25 μmol/kg, or vehicle; one cycle), or one dose daily for three consecutive days, repeated again five days later (cis-AVTP, trans-AVTG or 6-TG, 8.5 or 21.25 μmol/kg, or vehicle; two cycles).
The mice were sacrificed 24 h after the last treatment. Urine was collected for 24 h before initiation of treatment and every 24 h thereafter until the mice were sacrificed. Blood was collected by cardiac puncture and blood cells counted. Sections of liver, kidney, intestines, stomach and sternum were stained with hematoxylin and eosin and subjected to pathological analysis. Bone marrow smears were prepared for assessment of bone marrow cellularity. Liver function was evaluated by measuring alanine aminotransferase-(ALT) and aspartate aminotransferase (AST) activities in plasma. Kidney function was evaluated by measuring blood urea nitrogen in plasma and γ-glutamyltransferase activity and glucose levels in urine.

[10] = NCI-H460, Non-Small Cell Lung, 48 h

SMILES: Sc1ncnc2nc[nH]c12 [6-MP, 6-mercaptopurine]
- GI50 (SW-620): 6.82 µM
- TGI (SW-620): >100 µM
- CC50 (SW-620): > 100 µM
- GI50 (NCI-H460 [1]): 5.6 µM
- TGI (NCI-H460 [1]): >100 µM
- CC50 (NCI-H460 [1]): > 100 µM
- GI50 (HOP-62): 1.69 µM
- TGI (HOP-62): >100 µM
- CC50 (HOP-62): > 100 µM
- GI50 (OVCAR-4): 7.11 µM
- TGI (OVCAR-4): >100 µM
- CC50 (OVCAR-4): > 100 µM
- GI50 (SNB-75): 7.93 µM
- TGI (SNB-75): >100 µM
- CC50 (SNB-75): > 100 µM
- CC50 (LOX IMVI): > 100 µM
- GI50 (LOX IMVI): 0.35 µM
- TGI (LOX IMVI): >100 µM
- GI50 (KM12 [2]): 7.31 µM
- TGI (KM12 [2]): >100 µM
- CC50 (KM12 [2]): > 100 µM
- GI50 (HT29): 3.97 µM
- TGI (HT29): >100 µM
- CC50 (HT29): > 100 µM
- GI50 (SF-539): 2.38 µM
- TGI (SF-539): >100 µM
- CC50 (SF-539): > 100 µM
- GI50 (SK-MEL-5 [3]): 8.59 µM
- TGI (SK-MEL-5 [3]): >100 µM
- CC50 (SK-MEL-5 [3]): > 100 µM
- GI50 (OVCAR-3 [4]): 0.71 µM
- TGI (OVCAR-3 [4]): >100 µM
- CC50 (OVCAR-3 [4]): > 100 µM
- GI50 (RPMI-8226): 1.75 µM
- TGI (RPMI-8226): >100 µM
- CC50 (RPMI-8226): > 100 µM
- GI50 (MOLT-4): 1.51 µM
- TGI (MOLT-4): >100 µM
- CC50 (MOLT-4): > 100 µM
- GI50 (HCT-15): 4.38 µM
- TGI (HCT-15): >100 µM
- CC50 (HCT-15): > 100 µM

SMILES: CC(=O)C=CSc1nc(N)nc2nc[nH]c12 [trans-AVTG, 6-(2-acetylvinylthio) guanine]
- GI50 (SK-MEL-5 [5]; SK-MEL-5, Melanoma, 48 h): 1.68 µM
- TGI (SK-MEL-5 [5]; SK-MEL-5, Melanoma, 48 h): 8.10 µM
- CC50 (SK-MEL-5 [5]; SK-MEL-5, Melanoma, 48 h): 41.7 µM
- GI50 (U251; U251, CNS, 48 h): 6.55 µM
- TGI (U251; U251, CNS, 48 h): 48.4 µM
- CC50 (U251; U251, CNS, 48 h): > 100 µM
- GI50 (NCI-H23): 3.05 µM
- TGI (NCI-H23): 16.3 µM
- GI50 (NCI-H460 [6]; [10]): 0.59 µM
- TGI (NCI-H460 [6]; [10]): 3.57 µM
- CC50 (NCI-H460 [6]; [10]): 49.4 µM
- GI50 (OVCAR-3 [7]; OVCAR-3, Ovarian, 48 h): 0.24 µM
- TGI (OVCAR-3 [7]; OVCAR-3, Ovarian, 48 h): 0.63 µM
- CC50 (OVCAR-3 [7]; OVCAR-3, Ovarian, 48 h): 12.1 µM
- GI50 (K-562; K-562, Leukemia, 48 h): 0.5 µM
- TGI (K-562; K-562, Leukemia, 48 h): >100 µM
- CC50 (K-562; K-562, Leukemia, 48 h): > 100 µM
- GI50 (KM12 [8]; KM12, Colon, 48 h): 2.71 µM
- TGI (KM12 [8]; KM12, Colon, 48 h): 13.0 µM
- CC50 (KM12 [8]; KM12, Colon, 48 h): 64.8 µM
- GI50 (CCRF-CEM; Leukemia, 48 h): 0.14 µM
- TGI (CCRF-CEM; Leukemia, 48 h): 1.83 µM
- CC50 (CCRF-CEM; read-out: LC50, Leukemia, 48 h): 54.8 µM

SMILES: Nc1nc2nc[nH]c2c(=S)[nH]1 [6-TG, 6-thioguanine]
- GI50 (SW-620): 1.52 µM
- TGI (SW-620): >100 µM
- CC50 (SW-620): > 100 µM
- GI50 (NCI-H460 [1]): 0.66 µM
- TGI (NCI-H460 [1]): 20.0 µM
- CC50 (NCI-H460 [1]): > 100 µM
- GI50 (HOP-62): 0.73 µM
- TGI (HOP-62): 28.4 µM
- CC50 (HOP-62): > 100 µM
- GI50 (OVCAR-4): 1.49 µM
- TGI (OVCAR-4): 99.5 µM
- CC50 (OVCAR-4): > 100 µM
- GI50 (SNB-75): 1.42 µM
- TGI (SNB-75): 41.3 µM
- CC50 (SNB-75): > 100 µM
- CC50 (LOX IMVI): > 100 µM
- GI50 (LOX IMVI): 0.21 µM
- TGI (LOX IMVI): 8.99 µM
- GI50 (KM12 [2]): 1.72 µM
- TGI (KM12 [2]): 31.5 µM
- CC50 (KM12 [2]): > 100 µM
- GI50 (HT29): 1.13 µM
- TGI (HT29): >100 µM
- CC50 (HT29): > 100 µM
- ALT ([9]; 8.5 μmol/kg, one cycle): 9.2 ± 3.2 SF U/ml
- AST ([9]; 8.5 μmol/kg, one cycle): 43.5 ± 24.8 SF U/ml
- ALT ([9]; 8.5 μmol/kg, two cycles): 10.5 ± 6.6^a SF U/ml
- AST ([9]; 8.5 μmol/kg, two cycles): 37.9 ± 12.2^a SF U/ml
- ALT ([9]; 21.25 μmol/kg, one cycle): 15.0 ± 2.5^b SF U/ml
- AST ([9]; 21.25 μmol/kg, one cycle): 44.4 ± 5.4^c SF U/ml
- ALT ([9]; 21.25 μmol/kg, two cycles): 12.6 ± 4.8^a SF U/ml
- AST ([9]; 21.25 μmol/kg, two cycles): 68.2 ± 54.5^a SF U/ml
- GI50 (SF-539): 1.02 µM
- TGI (SF-539): 68.4 µM
- CC50 (SF-539): > 100 µM
- GI50 (SK-MEL-5 [3]): 3.53 µM
- TGI (SK-MEL-5 [3]): 16.4 µM
- CC50 (SK-MEL-5 [3]): 88.1 µM
- GI50 (OVCAR-3 [4]): 0.71 µM
- TGI (OVCAR-3 [4]): 6.68 µM
- CC50 (OVCAR-3 [4]): > 100 µM
- GI50 (RPMI-8226): 0.39 µM
- TGI (RPMI-8226): 20.9 µM
- CC50 (RPMI-8226): > 100 µM
- GI50 (MOLT-4): 0.27 µM
- TGI (MOLT-4): 15.4 µM
- CC50 (MOLT-4): > 100 µM
- GI50 (HCT-15): 1.07 µM
- TGI (HCT-15): 50.9 µM
- CC50 (HCT-15): > 100 µM

SMILES: CC(=O)C=CSc1ncnc2nc[nH]c12 [cis-AVTP, 6-(2-acetylvinylthio) purine]
- GI50 (SK-MEL-5 [5]; Homo sapiens, SK-MEL-5, 48 h): 1.3 µM
- CC50 (SK-MEL-5 [5]; Homo sapiens, SK-MEL-5, 48 h): 8.07 µM
- TGI (SK-MEL-5 [5]; SK-MEL-5, Melanoma, 48 h): 3.24 µM
- GI50 (U251; Homo sapiens, U-251, 48 h): 2.74 µM
- CC50 (U251; Homo sapiens, U-251, 48 h): 56.3 µM
- TGI (U251; U251, CNS, 48 h): 10.2 µM
- ALT ([9]; 8.5 μmol/kg, two cycles): 7.8 ± 4.0^a SF U/ml
- AST ([9]; 8.5 μmol/kg, two cycles): 55.1 ± 37.5^a SF U/ml
- ALT ([9]; 21.25 μmol/kg, one cycle): 2.0 ± 2.0^a,* SF U/ml
- AST ([9]; 21.25 μmol/kg, one cycle): 25.5 ± 4.3^a SF U/ml
- ALT ([9]; 21.25 μmol/kg, two cycles): 16.0 ± 4.3^a,# SF U/ml
- AST ([9]; 21.25 μmol/kg, two cycles): 60.2 ± 30.8^a SF U/ml
- GI50 (NCI-H23; Homo sapiens): 1.48 µM
- CC50 (NCI-H23; Homo sapiens, read-out: LC50 (the source's name)): 27.8 µM
- TGI (NCI-H23): 4.58 µM
- GI50 (NCI-H460 [6]; Homo sapiens, NCI-H460, 48 h): 0.68 µM
- CC50 (NCI-H460 [6]; Homo sapiens, NCI-H460, 48 h): 38.6 µM
- TGI (NCI-H460 [6]; [10]): 8.71 µM
- GI50 (OVCAR-3 [7]; Homo sapiens, OVCAR-3, 48 h): 0.03 µM
- CC50 (OVCAR-3 [7]; Homo sapiens, OVCAR-3, 48 h): 8.67 µM
- TGI (OVCAR-3 [7]; OVCAR-3, Ovarian, 48 h): 0.47 µM
- GI50 (K-562; Homo sapiens, K562, 48 h): 0.09 µM
- CC50 (K-562; Homo sapiens, K562, 48 h): > 100 µM
- TGI (K-562; K-562, Leukemia, 48 h): >100 µM
- GI50 (KM12 [8]; Homo sapiens, KM12, 48 h): 3.35 µM
- CC50 (KM12 [8]; Homo sapiens, KM12, 48 h): > 100 µM
- TGI (KM12 [8]; KM12, Colon, 48 h): 27.2 µM
- GI50 (CCRF-CEM; Homo sapiens, 48 h): 0.2 µM
- CC50 (CCRF-CEM; Homo sapiens, 48 h, read-out: LC50): > 100 µM
- TGI (CCRF-CEM; Leukemia, 48 h): 2.17 µM

Source: US20040023994A1 (priority 2002, published 2004)
